Test results from PMC10641818, “Development of First-in-Class Dual Sirt2/HDAC6 Inhibitors as Molecular Tools for Dual Inhibition of Tubulin Deacetylation” (Journal of Medicinal Chemistry, 2023).

Assays:
HDAC7 = molecular target: T1, HDAC7 (Homo sapiens, UniProt Q8WUI4); experiment: HDAC7 continuous fluorescence deacylation assay; type: biochemical
T1 sequence (Q8WUI4 1-952): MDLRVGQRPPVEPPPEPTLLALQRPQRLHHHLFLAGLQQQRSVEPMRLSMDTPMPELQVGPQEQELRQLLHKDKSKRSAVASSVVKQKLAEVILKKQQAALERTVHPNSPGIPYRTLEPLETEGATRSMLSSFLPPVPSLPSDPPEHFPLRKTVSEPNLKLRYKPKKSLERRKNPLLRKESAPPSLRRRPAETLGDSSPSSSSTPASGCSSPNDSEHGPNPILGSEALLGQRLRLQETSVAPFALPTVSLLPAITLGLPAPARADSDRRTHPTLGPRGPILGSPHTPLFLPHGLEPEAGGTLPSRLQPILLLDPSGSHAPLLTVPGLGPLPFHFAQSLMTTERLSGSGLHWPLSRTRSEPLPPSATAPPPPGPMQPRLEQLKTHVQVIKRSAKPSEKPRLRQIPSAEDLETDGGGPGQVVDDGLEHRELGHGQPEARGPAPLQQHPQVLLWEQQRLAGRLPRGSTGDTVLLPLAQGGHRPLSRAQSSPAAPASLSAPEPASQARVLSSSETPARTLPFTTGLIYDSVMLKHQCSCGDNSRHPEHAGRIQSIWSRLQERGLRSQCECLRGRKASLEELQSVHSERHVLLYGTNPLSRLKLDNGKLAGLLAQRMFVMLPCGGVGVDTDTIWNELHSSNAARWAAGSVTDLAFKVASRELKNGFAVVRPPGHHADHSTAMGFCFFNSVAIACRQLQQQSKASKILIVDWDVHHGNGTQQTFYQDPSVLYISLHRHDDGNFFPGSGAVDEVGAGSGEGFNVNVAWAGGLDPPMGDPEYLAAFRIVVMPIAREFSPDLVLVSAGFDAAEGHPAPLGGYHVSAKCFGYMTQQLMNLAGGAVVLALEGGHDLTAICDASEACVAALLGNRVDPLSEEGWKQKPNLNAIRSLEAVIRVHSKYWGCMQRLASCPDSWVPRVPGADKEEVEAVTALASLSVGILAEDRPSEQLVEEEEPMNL

[1] = test system: histone H3 acetylation (marker of HDAC1-3 inhibition); experiment: Western blot on histone H3 hyperacetylation in MCF-7 cells; type: cell-based; conditions: 24 h, 10 µM
Description: Western blots on histone H3 hyperacetylation in MCF-7 cells were performed according to a previously published protocol.[72] In brief, MCF-7 were centrifuged (450g, 4 min, 22 °C) and lysed with cell extraction buffer (Thermo Fisher), supplemented with 0.1 mM PMSF, Halt Protease Inhibitor (Thermo Fisher), and Natriumorthovanadat (Thermo Fisher). Precast gels with a polymerization degree of 4–15% were used (Mini-PROTEAN TGX Stain-Free; Bio-Rad Laboratories GmbH, Munich, Germany). Proteins were transferred to Trans-Blot Turbo-PVDF membrane (Bio-Rad). The membrane was blocked with skimmed milk powder in Tris-buffered saline-Tween 20 (with 0.2% Tween 20) for 60 min, followed by three washing cycles of 10 min using Tris-buffered saline-Tween 20. Afterward, membranes were incubated with primary antibodies for ac.-Histon H3 (Cell Signal, rabbit) and GAPDH (Gene Tex, Irvine, USA, mouse) for a total of 60 min at room temperature and then incubated at 4 °C overnight. […] After rinsing of the secondary antibody, membranes were detected using ClarityECL Western Blotting Substrate (Bio-Rad). For quantitative determination, the StainFree technique was employed (Bio-Rad), as well as normalization, against the housekeeping protein GAPDH, which allows the imaging of whole lysates in SDS-PAGE before blotting and normalization against the total protein. […]

Sirt2 (demyristoylation) = Sirt2 (demyristoylation) (Homo sapiens, UniProt Q8IXJ6); experiment: Continuous Sirt2 demyristoylation assay (myristoylated peptide substrate); type: biochemical; conditions: peptide-based myristoylated substrate, triplicate; read-out: Sirt2-mediated demyristoylation IC50
Description: As a second method to confirm the inhibition of Sirt2-mediated demyristoylation by 33, we used a continuous Sirt2 demyristoylation assay as reported by Zessin et al.[48] In brief, this assay was performed in a black 384-well fluorescence plate in a total volume of 40 μL of Sirt assay buffer (20 mM Tris-HCl, 150 mM NaCl, 5 mg/mL MgCl2, 2 mg/mL BSA, pH 7.8). Dilution series of the inhibitor was done in DMSO. A total of 2 μL of the inhibitor dilutions were incubated with 14 μL of the peptide substrate, referred to as F4 in Zessin et al.[48] (final concentration 40 nM) and 14 μL of Sirt2 solution (final concentration 1 nM) for 5 min at room temperature. In addition to the inhibitor-containing samples, a sample without inhibitors was measured as a positive control, and a sample without enzymes was measured as a negative control. The DMSO concentration was set to 5% (v/v). The reaction was started by the addition of 10 μL of NAD^+ (final concentration 500 μM). The product formation was monitored by the change in fluorescence intensity, and the reaction rate represented the activity. Fluorescence readout was performed with a BMG Fluostar Omega plate reader at following wavelengths: Excitation wavelength: λEx = 485 ± 10 nm, emission wavelength: λEm = 530 ± 10 nm. Inhibition was calculated using the following equation: [drawing 1] […]

Sirt2 (demyristoylation), sequence (Q8IXJ6 whole entry): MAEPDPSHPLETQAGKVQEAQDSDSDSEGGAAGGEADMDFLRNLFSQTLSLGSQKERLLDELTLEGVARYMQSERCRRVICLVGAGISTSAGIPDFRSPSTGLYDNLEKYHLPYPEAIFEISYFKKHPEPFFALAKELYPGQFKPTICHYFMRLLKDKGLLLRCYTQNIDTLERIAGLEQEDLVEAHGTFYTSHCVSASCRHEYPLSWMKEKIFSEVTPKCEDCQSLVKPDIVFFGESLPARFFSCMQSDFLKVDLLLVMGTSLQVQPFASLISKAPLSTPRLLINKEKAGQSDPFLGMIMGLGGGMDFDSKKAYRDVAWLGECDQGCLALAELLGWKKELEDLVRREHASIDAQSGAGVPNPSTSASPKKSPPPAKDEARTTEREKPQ

In the case of `CCCCN(Cc1ccc(C(=O)NO)cc1)C(=O)CCCCn1cc(COc2cccc(Cc3cnc(NC(=O)CSc4nc(C)cc(C)n4)s3)c2)nn1` [Compound 33, 4-((N-Butyl-5-(4-((3-((2-(2-((4,6-dimethylpyrimidin-2-yl)thio)acetamido)thiazol-5-yl)methyl)phenoxy)methyl)-1H-1,2,3-triazol-1-yl)pentanamido)methyl)-N-hydroxybenzamide], the IC50 (HDAC7) is reported as over 6000 nM, the inhibition at 6 µM (HDAC7; @ 6 µM, read-out: HDAC7 percentual inhibition) is reported as 29% and the inhibition at 20 µM (HDAC7; @ 20 μM, read-out: HDAC7 percentual inhibition) is reported as 57%. For the same molecule, the “Histone H3 hyperacetylation (cellular class I HDAC off-target inhibition)” value [1] was “no significant off-target inhibition of class I” and the IC50 (Sirt2 (demyristoylation)) was 880 ± 90 nM.
